Laboratory results as given in US11634396B2 (priority 2021, dated 2023).
Like-named read-outs stand apart in the source and are kept apart here.

Biological target: human mOR (Homo sapiens (Human), UniProt P35372)
Test: cell-based
[1] = CHO Tag-lite human mOR stable cell line, forskolin 4 μM and DAMGO at EC90, read-out: mOR cAMP Antagonist Assay IC50

human mOR, sequence (P35372 whole entry): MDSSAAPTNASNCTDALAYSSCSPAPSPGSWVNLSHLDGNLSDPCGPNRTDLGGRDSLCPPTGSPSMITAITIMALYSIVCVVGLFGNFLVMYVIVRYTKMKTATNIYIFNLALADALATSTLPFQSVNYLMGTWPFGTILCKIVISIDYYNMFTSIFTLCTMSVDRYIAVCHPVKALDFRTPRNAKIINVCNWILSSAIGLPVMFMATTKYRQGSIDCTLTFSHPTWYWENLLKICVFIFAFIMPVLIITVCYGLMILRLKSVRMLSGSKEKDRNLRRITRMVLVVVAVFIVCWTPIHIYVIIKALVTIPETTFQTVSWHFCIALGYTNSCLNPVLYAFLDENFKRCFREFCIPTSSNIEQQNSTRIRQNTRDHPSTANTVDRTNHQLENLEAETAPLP

| SMILES | IC50 | also measured |
| --- | --- | --- |
| CNC(=O)c1ccc(C[C@@H](CNC(=O)C[C@H](c2cnc(C)s2)C2(C(F)(F)F)CC2)N(C)C)c(F)c1 [Compound 123, 4-((S)-2-(dimethylamino)-3-((S)-3-(2-methylthiazol-5-yl)-3-(1-(trifluoromethyl)cyclopropyl)propanamido)propyl)-3-fluoro-N-methylbenzamide] | < 300 nM |  |
| CNC(=O)c1ccc(C[C@@H](CNC(=O)C[C@H](c2ccc(Cl)cc2)C2(C(F)(F)F)CC2)N(C)C)cc1F [Compound 107, 4-((S)-3-((R)-3-(4-chlorophenyl)-3-(1-(trifluoromethyl)cyclopropyl)propanamido)-2-(dimethylamino)propyl)-2-fluoro-N-methylbenzamide] | < 300 nM |  |
| Cc1c(C[C@@H](CNC(=O)C[C@H](c2cccnc2)C2(C)CC2)N(C)C)ccc2[nH]ncc12 [Compound 199, (S)-N-((S)-2-(dimethylamino)-3-(4-methyl-1H-indazol-5-yl)propyl)-3-(1-methylcyclopropyl)-3-(pyridin-3-yl)propanamide] | < 300 nM |  |
| CN(C)[C@H](CNC(=O)CC(c1ccncc1)C1(C(F)(F)F)CC1)Cc1ccc(O)c(Cl)c1 (stereo partly drawn) [Compound 284, N-((S)-3-(3-chloro-4-hydroxyphenyl)-2-(dimethylamino)propyl)-3-(pyridin-4-yl)-3-(1-(trifluoromethyl)cyclopropyl)propanamide] | < 300 nM |  |
| CN(C)[C@H](CNC(=O)CC(c1ncccn1)C1(C(F)(F)F)CC1)Cc1ccc(O)c(Cl)c1 (stereo partly drawn) [Compound 285, N-((S)-3-(3-chloro-4-hydroxyphenyl)-2-(dimethylamino)propyl)-3-(pyrimidin-2-yl)-3-(1-(trifluoromethyl)cyclopropyl)propanamide] | < 300 nM |  |
| CN[C@H](CNC(=O)C[C@H](c1cccnc1)C1(C(F)(F)F)CC1)Cc1ccc2[nH]ncc2c1 [Compound 200, (R)-N-((S)-3-(1H-indazol-5-yl)-2-(methylamino)propyl)-3-(pyridin-3-yl)-3-(1-(trifluoromethyl)cyclopropyl)propanamide] |  | IC50 [1]: 300 to 3000 nM |
| Cc1c(C[C@@H](CNC(=O)C[C@@H](CC2CC2)c2cccnc2)N(C)C)ccc2c1CC(=O)N2 [Compound 179, (R)-4-cyclopropyl-N-((S)-2-(dimethylamino)-3-(4-methyl-2-oxoindolin-5-yl)propyl)-3-(pyridin-3-yl)butanamide] | < 300 nM |  |
| CC[C@H](CC(=O)NC[C@H](Cc1c(C)cc(O)cc1C)N(C)C)c1cnc(C)s1 [Compound 252, (R)-N-((S)-2-(dimethylamino)-3-(4-hydroxy-2,6-dimethylphenyl)propyl)-3-(2-methylthiazol-5-yl)pentanamide] | < 300 nM |  |
| CNC(=O)c1ccc(C[C@@H](CNC(=O)C[C@@H](CC2CC2)c2cccnc2)N(C)C)c(C)c1 [Compound 133, 4-((S)-3-((R)-4-cyclopropyl-3-(pyridin-3-yl)butanamido)-2-(dimethylamino)propyl)-N,3-dimethylbenzamide] | > 3000 nM |  |
| CNC(=O)c1ccc(C[C@@H](CNC(=O)C[C@@H](c2ccncc2)C2(C(F)(F)F)CC2)N(C)C)c(Cl)c1F (single isomer, unassigned) [Compound 111] |  | IC50 [1]: < 300 nM |
| CN(C)[C@H](CNC(=O)CC(c1ncccn1)C1(C(F)(F)F)CC1)Cc1ccc(C(N)=O)cc1Cl (stereo partly drawn) [Compound 27, 3-chloro-4-((2S)-2-(dimethylamino)-3-(3-(pyrimidin-2-yl)-3-(1-(trifluoromethyl)cyclopropyl)propanamido)propyl)benzamide] | < 300 nM |  |
| CNC(=O)c1ccc(C[C@@H](CNC(=O)CC(c2ncccc2F)C2(C(F)(F)F)CC2)N(C)C)c(Cl)c1 (stereo partly drawn) [Compound 120, 3-chloro-4-((2S)-2-(dimethylamino)-3-(3-(3-fluoropyridin-2-yl)-3-(1-(trifluoromethyl)cyclopropyl)propanamido)propyl)-N-methylbenzamide] | < 300 nM |  |
| Cc1cc(O)cc(C)c1C[C@@H](CNC(=O)C[C@H](CC1CC1)c1cccnc1)N(C)C [Compound 241, (S)-4-cyclopropyl-N-((S)-2-(dimethylamino)-3-(4-hydroxy-2,6-dimethylphenyl)propyl)-3-(pyridin-3-yl)butanamide] | < 300 nM |  |
| CNC(=O)c1ccc(C[C@@H](CNC(=O)C[C@@H](c2ccccn2)C2(C(F)(F)F)CC2)N(C)C)cc1F [Compound 153, 4-((S)-2-(dimethylamino)-3-((R)-3-(pyridin-2-yl)-3-(1-(trifluoromethyl)cyclopropyl)propanamido)propyl)-2-fluoro-N-methylbenzamide] | > 3000 nM |  |
| Cc1ncc(C(CC(=O)NC[C@H](Cc2c(C)cc(O)cc2C)N(C)C)C2CC2)s1 (stereo partly drawn) [Compound 254, (S)-3-cyclopropyl-N-((S)-2-(dimethylamino)-3-(4-hydroxy-2,6-dimethylphenyl)propyl)-3-(2-methylthiazol-5-yl)propanamide] | < 300 nM |  |
| Cc1ncc([C@@H](CC(=O)NC[C@H](Cc2ccc(C(N)=O)c(F)c2C)N(C)C)C2CC2)cn1 [Compound 42, 4-((S)-3-((S)-3-cyclopropyl-3-(2-methylpyrimidin-S-yl)propanamido)-2-(dimethylamino)propyl)-2-fluoro-3-methylbenzamide] | > 3000 nM |  |

| SMILES | IC50 | also measured |
| --- | --- | --- |
| CNC(=O)c1ccc(C[C@@H](CNC(=O)CC(c2ccc(F)cn2)C2(C(F)(F)F)CC2)N(C)C)c(Cl)c1 (stereo partly drawn) [Compound 121, 3-chloro-4-((2S)-2-(dimethylamino)-3-(3-(5-fluoropyridin-2-yl)-3-(1-(trifluoromethyl)cyclopropyl)propanamido)propyl)-N-methylbenzamide] | < 300 nM |  |
| Cc1ncc([C@@H](CC(=O)NC[C@H](Cc2ccc(C(N)=O)c(F)c2)N(C)C)C2CC2)cn1 [Compound 67, 4-((S)-3-((S)-3-cyclopropyl-3-(2-methylpyrimidin-5-yl)propanamido)-2-(dimethylamino)propyl)-2-fluorobenzamide] | > 3000 nM |  |
| CN(C)[C@H](CNC(=O)C[C@H](c1cccnc1)C1(C)CC1)Cc1ccc(O)cc1C(F)(F)F [Compound 256, (S)-N-((S)-2-(dimethylamino)-3-(4-hydroxy-2-(trifluoromethyl)phenyl)propyl)-3-(1-methylcyclopropyl)-3-(pyridin-3-yl)propanamide] | < 300 nM |  |
| Cc1ncc([C@@H](CC(=O)NC[C@H](Cc2ccc(O)cc2)N(C)C)C2(C(F)(F)F)CC2)cn1 [Compound 312, (R)-N-((S)-2-(dimethylamino)-3-(4-hydroxyphenyl)propyl)-3-(2-methylpyrimidin-5-yl)-3-(1-(trifluoromethyl)cyclopropyl)propanamide] | < 300 nM |  |
| Cc1c(C[C@@H](CNC(=O)C[C@@H](c2cncc(F)c2)C(C)(C)C)N(C)C)ccc(C(N)=O)c1F [Compound 45, 4-((S)-2-(dimethylamino)-3-((R)-3-(5-fluoropyridin-3-yl)-4,4-dimethylpentanamido)propyl)-2-fluoro-3-methylbenzamide] | < 300 nM |  |
| CNC(=O)c1ccc(C[C@@H](CNC(=O)CC(c2cccnc2)C2(C(F)(F)F)CC2)N(C)C)c(Cl)c1F (stereo in doubt) [Compound 109, 3-chloro-4-((S)-2-(dimethylamino)-3-((S)-3-(pyridin-3-yl)-3-(1-(trifluoromethyl)cyclopropyl)propanamido)propyl)-2-fluoro-N-methylbenzamide] | < 300 nM |  |
| CN(C)[C@H](CNC(=O)CC(c1ncccn1)C1(C(F)(F)F)CC1)Cc1ccc2c(c1)CC(=O)N2 (stereo partly drawn) [Compound 188, N-((S)-2-(dimethylamino)-3-(2-oxoindolin-5-yl)propyl)-3-(pyrimidin-2-yl)-3-(1-(trifluoromethyl)cyclopropyl)propenamide] |  | IC50 [1]: 300 to 3000 nM |
| CN(C)[C@H](CNC(=O)C[C@H](c1cncs1)C1CC1)Cc1ccc(O)cc1 [Compound 292, (S)-3-cyclopropyl-N-((S)-2-(dimethylamino)-3-(4-hydroxyphenyl)propyl)-3-(thiazol-5-yl)propanamide] |  | IC50 [1]: 300 to 3000 nM |
| Cc1cnc([C@@H](CC(=O)NC[C@H](Cc2ccc(C(N)=O)c(F)c2)N(C)C)C2(C(F)(F)F)CC2)s1 [Compound 56, 4-((S)-2-(dimethylamino)-3-((S)-3-(5-methylthiazol-2-yl)-3-(1-(trifluoromethyl)cyclopropyl)propanamido)propyl)-2-fluorobenzamide] |  | IC50 (read-out: mOR cAMP Antagonist Assay IC50): 300 to 3000 nM |
| Cc1ncc([C@@H](CC(=O)NC[C@H](Cc2ccc(C(N)=O)c(F)c2F)N(C)C)C2(C(F)(F)F)CC2)cn1 [Compound 3, 4-((S)-2-(dimethylamino)-3-((R)-3-(2-methylpyrimidin-5-yl)-3-(1-(trifluoromethyl)cyclopropyl)propanamido)propyl)-2,3-difluorobenzamide] | < 300 nM |  |
| Cc1cc(O)cc(C)c1C[C@@H](CNC(=O)C[C@H](C)c1ccc(Cl)cc1)N(C)C [Compound 250, (S)-3-(4-chlorophenyl)-N-((S)-2-(dimethylamino)-3-(4-hydroxy-2,6-dimethylphenyl)propyl)butanamide] |  | IC50 [1]: 300 to 3000 nM |
| CC(C)C[C@H](CC(=O)NC[C@H](Cc1ccc(C(N)=O)c(F)c1)N(C)C)c1cccnc1 [Compound 60, 4-((S)-2-(dimethylamino)-3-((R)-5-methyl-3-(pyridin-3-yl)hexanamido)propyl)-2-fluorobenzamide] |  | IC50 [1]: < 300 nM |
| CN(C)[C@H](CNC(=O)C[C@H](c1cncs1)C1(C(F)(F)F)CC1)Cc1ccc(O)cc1 [Compound 296, (S)-N-((S)-2-(dimethylamino)-3-(4-hydroxyphenyl)propyl)-3-(thiazol-5-yl)-3-(1-(trifluoromethyl)cyclopropyl)propanamide] | < 300 nM |  |
| CN(C)[C@H](CNC(=O)C[C@H](c1cccnc1)C1(C(F)(F)F)CC1)Cc1ccc(O)cc1Cl [Compound 262, (R)-N-((S)-3-(2-chloro-4-hydroxyphenyl)-2-(dimethylamino)propyl)-3-(pyridin-3-yl)-3-(1-(trifluoromethyl)cyclopropyl)propanamide] | < 300 nM |  |
| Cc1ncc([C@@H](CC(=O)NC[C@H](Cc2ccc(C(N)=O)c(F)c2)N(C)C)C2(C(F)(F)F)CC2)s1 [Compound 59, 4-((S)-2-(dimethylamino)-3-((S)-3-(2-methylthiazol-5-yl)-3-(1-(trifluoromethyl)cyclopropyl)propanamido)propyl)-2-fluorobenzamide] | < 300 nM |  |
